Data taken from patent US6448263B1, “Treatment of insulin resistance with growth hormone secretagogues” (Pfizer Inc., priority 1997, dated 2002).
Structures can show the parent of a compound that is named as a salt.

Test system: female Sprague-Dawley rats (Sham and Ovx)
Test: Female Rat Study: chronic oral treatment with a GHRP mimetic, non-fasting plasma insulin and metabolite levels
Type: in vivo
Settings: non-fasting blood at sacrifice
Procedure: This study evaluates the effect of chronic treatment with a GHRP mimetic on weight, body composition and non-fasting plasma concentrations of glucose, insulin, lactate and lipids in estrogen-deficient and estrogenreplete female rats. Acute responsiveness of serum GH levels to i.v. administration of the GH releasing agent was assessed on the last day of dosing. Body weight was monitored weekly throughout the treatment period; additionally, body composition and plasma levels of glucose, insulin, lactate, cholesterol and triglycerides were assessed at the end of treatment.
Virgin female Sprague-Dawley rats were obtained from Charles River Laboratories (Wilmington, Mass.) and underwent bilateral ovariectomy (Ovx) or sham-surgery (Sham) at approximately 12 weeks of age. For sham surgeries, ovaries were exteriorized and replaced into the abdominal cavity. Following surgery the rats were housed individually in 20 cm×32 cm×20 cm cages under standard vivarium conditions (about 24° C. with about 12 hours light/12 hours dark cycle). All rats were allowed free access to water and a pelleted commercial diet (Agway ProLab 3000, Agway Country Food, Inc., Syracuse, N.Y.). The experiment was conducted in accordance with NIH Guidelines for the Care and Use of Laboratory Animals.
Approximately seven months post-surgery, Sham and Ovx rats were weighed and randomly assigned to groups. Rats were dosed daily by oral gavage with 1 mL of either vehicle (1% ethanol in distilled-deionized water), 0.5 mg/kg or 5 mg/kg of a growth hormone releasing agent for 90 days. Rats were weighed at weekly intervals throughout the study. Twenty-four hours after the last oral dose, the acute response of serum growth hormone (GH) to test agent was assessed by the following procedure. Rats were anesthetized with sodium pentobarbital 50 mg/kg. Anesthetized rats were weighed and a baseline blood sample (˜100 μl) was collected from the tail vein. Test agent (growth hormone releasing agent or vehicle) was then administered intravenously via the tail vein in 1 mL. Approximately ten minutes after injection, a second 100 μl blood sample was collected from the tail. Blood was allowed to clot at about 4° C., then centrifuged at 2000×g for about 10 minutes. Serum was stored at about −70° C. Serum growth hormone concentrations were determined by radioimmunoassay as previously described. Following this procedure, each anesthetized rat underwent whole body scanning by dual-energy X-ray absorptiometry (DEXA, Hologic QDR 1000/W, Waltham Mass.). A final blood sample was collected by cardiac puncture into heparinized tubes. Plasma was separated by centrifugation and stored frozen as described above.
Plasma insulin is determined by radioimmunoassay using a kit from Binax Corp. (Portland, Me.). The interassay coefficient of variation is ≦10%. Plasma triglycerides, total cholesterol, glucose and lactate levels are measured using Abbott VP™ and VP Super System® Autoanalyzer (Abbott Laboratories, Irving, Texas), using the A-Gent™ Triglycerides, Cholesterol and Glucose Test reagent systems, and a lactate kit from Sigma, respectively. The plasma insulin, triglycerides, total cholesterol and lactate lowering activity of a growth hormone releasing peptide (GHRP) or GHRP mimetic such as a compound of formula I, are determined by statistical analysis (unpaired t-test) with the vehicle-treated control group.

[1] = Ovx rats, 0.5 mg/kg daily oral gavage for 90 days
[2] = Ovx rats, 5.0 mg/kg daily oral gavage for 90 days
[3] = Sham rats, 0.5 mg/kg daily oral gavage for 90 days
[4] = Sham rats, 5.0 mg/kg daily oral gavage for 90 days

With CN1N=C2CCN(C(=O)[C@@H](COCc3ccccc3)NC(=O)C(C)(C)N)C[C@@]2(Cc2ccccc2)C1=O [2-amino-N-[2-(3a-(R)-benzyl-2-methyl-3-oxo-2,3,3a,4,6,7-hexahydro-pyrazolo[4,3-c]pyridin-5-yl)-1-(R)-(benzyloxymethyl)-2-oxo-ethyl]-isobutyramide L-tartaric acid salt] the “Cholesterol (mean plasma level)” value [1] was 92.5 mg/dL, the “Glucose (mean plasma level)” value [1] was 179.7 mg/dL and the “Insulin (mean plasma level)” value [1] was “*78.7 uU/mL”. The “Lactate (mean plasma level)” value [1] was 3.6 mg/dL, the “Triglyceride (mean plasma level)” value [1] was 181.9 mg/dL and the “Cholesterol (mean plasma level)” value [2] was 102.2 mg/dL. The “Glucose (mean plasma level)” value [2] was 177.2 mg/dL, the “Insulin (mean plasma level)” value [2] was “*84.1 uU/mL” and the “Lactate (mean plasma level)” value [2] was 3.1 mg/dL. For the same molecule, the “Triglyceride (mean plasma level)” value [2] was 158.4 mg/dL, the “Cholesterol (mean plasma level)” value [3] was 95.4 mg/dL and the “Glucose (mean plasma level)” value [3] was “*142.7 mg/dl”. For the same molecule, the “Insulin (mean plasma level)” value [3] was 94.9 uU/mL, the “Lactate (mean plasma level)” value [3] was 3.7 mg/dL and the “Triglyceride (mean plasma level)” value [3] was 219.6 mg/dL. For the same molecule, the “Cholesterol (mean plasma level)” value [4] was “*80.6 mg/dl”, the “Glucose (mean plasma level)” value [4] was “*139.9 mg/dl” and the “Insulin (mean plasma level)” value [4] was 95.7 uU/mL. For the same molecule, the “Lactate (mean plasma level)” value [4] was “*3.2 mg/dl” and the “Triglyceride (mean plasma level)” value [4] was 227.2 mg/dL.
